These results are taken from patent US5686424A, “2-oxoethyl derivatives as immunosuppressants” (Miles Inc., priority 1995, dated 1997).

As usually defined, the IC50 is the concentration needed to halve the response being measured.

One assay deals with NF-AT. Description: NF-AT Inhibition Assay Directed β-Galactosidase Expression in FGL-5 cells. In kind it is cell-based. The procedure:
3) NF-AT Assay Stimulation of T-cells leads to the appearance of several transcription factors, including one designated "NF-AT". These factors are involved in regulation of gene expression required for immunologic activation. Some of these transcription factors appear to have functions in a wide variety of cell types. By contrast, NF-AT is found primarily in T-cells and its role is restricted to early gene activation. […] Inhibition of NF-AT activity is measured using FGL-5 cells. FGL-5 is a cloned line of stably transfected Jurkat T-cells that contain two construct in which three tandem copies of the NF-AT DNA binding site direct transcription of both murine CD8 and the lacZ gene, encoding β-galactosidase ([…] et al., 1990, Genes & Development 4:1823). When these cells are stimulated with phorbol esters which activate protein kinase C and calcium ionophore to raise the intracellular calcium concentration, transcriptionally active NF-AT is produced. In T-cells, this normally leads to the expression of IL-2, T-cell growth factor. However, in FGL-5 cells NF-AT activation leads to the production of β-galactosidase which can be detected using an appropriate substrate. […] NF-AT Inhibition Assay Directed β-Galactosidase Expression This assay was performed essentially as described (Bierer et al., 1990, Proc. Natl. Acad. Sci. 87:9231). […] The assays were done with exponentially growing cells whose density was not greater than 0.5 million cells/ml. The cells were resuspended to 3 million cells/ml in medium and 0.1 ml was added to wells of a 96-well plate. The compounds of the present invention were dissolved in either ethanol or dimethylsulfoxide at 10 mM and […] of various dilutions in medium were added to cells in duplicate wells. Treatment controls consisted of duplicate wells containing 0.5 ml/well of either medium, ethanol or dimethylsulfoxide. The ethanol and dimethyl sulfoxide were at the same concentration as was used for the compounds. […] Phorbol dibutyrate (Sigma) and Ionomycin (Calbiochem) were dissolved at 50 μg/ml and 2 mM, respectively and stored at -70° C. […] For unstimulated cell controls, 0.5 ml/well of medium was added to duplicate wells. The plates were incubated overnight (16-18 hours) at 37° C. in a humidified atmosphere of 5% CO2 and air. β-galactosidase activity was measured as the fluorescence generated by the cleavage of 4-methyl umbelliferyl-β-D-galactoside (Sigma) at the β-galactoside bond. After overnight incubation, the cells were centrifuged at 500×g for 3 minutes in the 96-well plates and washed 3 times with PBS. […] The percent inhibition by each concentration of the compounds was calculated as: […]

A further assay has as its target FKBP (Homo sapiens, UniProt P62942). Kind of assay: PPIase Inhibition Assay. In kind it is biochemical. The procedure:
1) Inhibition of PPIase Activity
This assay follows in principle the procedure described in Kofron et al., 1991, Biochemistry 30:6127.
The three main reagents used are PPIase, a substrate for PPIase, and a selected inhibitor compound of the present invention. The basic principle behind this assay is the conversion of the cis isomer of the substrate to the trans form, which conversion is catalyzed by PPIase. Essentially, inhibition of this PPIase activity is measured for the selected compounds. A peptide chymotrypsin substrate containing a proline in the P2 position is only cleaved by chymotrypsin when the Phe-Pro bond is in the trans isomeric configuration. In the presence of excess chymotrypsin, all of the trans peptide isomers are cleaved within approximately five seconds, leaving only cis forms.
The cis peptide will spontaneously convert to the trans isomer at a slow rate. The cis to trans conversion is catalyzed by isomerases at a much faster rate than this spontaneous conversion. Proteins with PPIase activity are examples of such isomerases. After isomerization, the peptide is cleaved by chymotrypsin releasing p-nitroaniline which can be monitored at 390 nm. The rate of release is then calculated using a first order rate plus offset equation utilizing the ENZFITTER program (Leatherbarrow, BIOSOFT, Cambridge, United Kingdom).
In a plastic cuvette are added 950 ul of ice cold assay buffer (25 mM HEPES, pH 7.8, 100 mM NaCl), 10 uL of FKBP (2.5 uM in 10 mM Tris-Cl pH 7.5, 100 mM NaCl, 1 mM dithiothreitol), 25 ul of chymotrypsin (50 mg/ml in 1 mM HCl) and 10 ul of the test compound at various concentrations in dimethyl sulphoxide. The reaction is initiated by addition of 5 ul of substrate (Succinyl-Ala-Phe-Pro-Phe-para-nitroanilide, 5 mg/ml in 235 mM LiCl in trifluoroethanol).
The absorbance at 390 nm versus time is monitored for 90 sec using a Beckman DU70 spectrophotometer. The absorbance versus time data files are transferred to an IBM XT computer and the rate constants determined using the commercial enzfitter program. For each set of data, the uncatalyzed rate of conversion is measured and the uninhibited enzymatic rate determined. The data are expressed as % Activity remaining and are calculated as follows:
% Activity Remaining=(kobs -kuncat)/(kuninh
where kobs is the rate in the presence of a selected test compound, kuncat is the rate in the absence of enzyme, and kuninh is the rate in the presence of enzyme
Data was plotted as the velocity in the absence of the inhibitor (V-) divided by the velocity in the presence of inhibitor (V+) versus the inhibitor concentration. The IC50 can be determined following linear regression as the inhibitor concentration where

For another assay, the system named is human T-cells. Description: Suppression of Human T-Cell Proliferation Assay (PHA-stimulated, [3H]-thymidine incorporation). Conditions: read-out: IC50. In kind it is cell-based. The source says: 2) Human T Lymphocyte Inhibition
Inhibition of mitogen-induced T-cell proliferation can be used to profile immunosuppressive activity of test compounds. In the description of the assay which follows, mitogen-induced T-cell activation was used to test the inhibitory potencies of select compounds of the present invention.
In an assay similar to that described by Bradley in Mishell et al. (Eds.), 1980, Selected Methods in Cellular Immunology, pp 156-161, W. H. Freeman & Co., San Fransisco, Calif., T-cells were stimulated by incubation with phytohemagglutinin (PHA) which binds to cell surface molecules, including the T-cell receptor. This stimulation results in proliferation which can be measured by incorporation of [^3 H]-thymidine into cellular DNA.
The immunosuppressive properties of the compounds of the present invention can be determined by adding various concentrations of the compounds to these cultures and measuring the effect on T-cell proliferation.
Suppression of Human T-Cell Proliferation Assay
Fresh LeukoPaks were obtained from the New York Blood Center, New York, N.Y. The cells, including erythrocytes and leukocytes, were diluted with Hank's Balanced Salt Solution (HBSS) (GIBCO, Grand Island, N.Y.) and layered over Lymphoprep (Nycomed Pharma AS, Oslo, Norway) in sterile 50 ml conical centrifuge tubes. Lymphocytes were isolated at the Hank's/Nycomed interface after centrifugation at 2000×g, 4° C. for 15 min. The lymphocytes were washed with Minimal Essential Medium (GIBCO) containing 2% fetal bovine serum (FBS) (Sigma Chemical Co., St. Louis, Mo.), 1% HEPES buffer (GIBCO) and 1% Penicillin-Stretomycin solution (GIBCO).
T-cells were further purified essentially by sheep erythrocyte (SRBC) rosetting as described by Morimoto et al., 1983, J. Immunol. 130:157. The isolated lymphocytes were adjusted to 2×10^7 cells/ml and 5 ml aliquots of the cell suspension were incubated for 10 minutes at room temperature with 5 ml of a 5% SRBC (Cappel, Organon Technika Corp., West Chester, Pa.) suspension. The cells were gently pelleted by centrifugation at 300 rpm for 10 minutes, followed by a 1 hour incubation at room temperature to allow rosette formation. The cells were gently resuspended,layered over Lymphoprep and centrifuged for 30 minutes at 500×g. The pellet, containing rosetted T-cells and SRBC was treated with ice cold buffered ammonium chloride (GIBCO) to lyse the erythrocytes. T-cells were washed twice with HBSS.
Purified T-cells were resuspended at 2×10^6 cells/ml in complete culture medium composed of RPMI-1640 (Whittaker Bioproducts, Walkerville, Md.) with 10% FBS (Sigma), 2 mM L-glutamine (GIBCO), 1% Penicillin-Streptomycin (GIBCO) and 15 mM HEPES (GIBCO). In 96-well plates (Becton Dickinson, Lincoln Park, N.J.), 0.1 ml aliquots of T-cell suspension were mixed with 0.05 ml of 40 μg/ml PHA-M (Sigma). The compounds of this invention were dissolved in dimethylsulfoxide at 10 mM and various dilutions in complete medium were added in duplicate wells (0.05 ml/well). The plates were incubated at 37° C. in a humidified atmosphere of 5% carbon dioxide and 95% air for 72 hours.
Proliferation was assessed by measurement of [^3 H]-thymidine incorporation. During the last 6 hours of incubation, the cells were pulse labelled with 1 μCi/well of [^3 H]-thymidine (New England Nuclear, Boston, Mass.). The cells were harvested onto glass fiber paper using a plate harvester and the radioactivity incorporated into cellular DNA corresponding to individual wells was measured by standard liquid scintillation counting methods.
(In general: Incorporation of labelled thymidine or its analogues reports DNA synthesis.)

Where [1] appears, read: 50% inhibition of NF-AT directed β-galactosidase activity in FGL-5 cells stimulated with phorbol dibutyrate and ionomycin, TABLE 3.
The mark [2] stands for this setting: concentration of inhibitor required for 50% inhibition of enzyme activity, FKBP, substrate Succinyl-Ala-Phe-Pro-Phe-para-nitroanilide, TABLE I.
The mark [3] stands for this setting: concentration inhibiting [3H]-thymidine incorporation of PHA-stimulated T-cells by 50%, 72 hours, TABLE 2.

Like-named read-outs stand apart in the source and are kept apart here.

FKBP, sequence (P62942 whole entry): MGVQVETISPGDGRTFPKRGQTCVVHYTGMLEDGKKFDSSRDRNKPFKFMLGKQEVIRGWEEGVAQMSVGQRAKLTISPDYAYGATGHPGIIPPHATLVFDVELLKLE

Take `CC[C@H](C)[C@H](NC(=O)[C@@H]1CCCN1CC(=O)C1CCC2CCCC21)C(=O)NCc1ccccc1` (relative stereo) [Example 40]: the IC50 in the assay on NF-AT is 19 µM; at FKBP, below 5 µM; with human T-cells it was 17 µM.

As to `CC[C@H](C)[C@H](NC(=O)[C@@H]1CCCCN1CC(=O)C12CC3CC(CC(C3)C1)C2)C(=O)NCc1ccccc1` [Example 36, L-Isoleucine, N-[1-(2-Adamantan-1-yl-2-Oxoethyl)-L-Homoproline] Benzylamide], the IC50 with NF-AT (setting [1]) amounted to 13 µM; against FKBP (setting [2]), 2.2 µM; in the assay on human T-cells (setting [3]), 20 µM.

`CC[C@H](C)[C@H](NC(=O)[C@@H]1CCCN1CC(=O)c1ccco1)C(=O)NCc1ccccc1` [Example 37, L-Isoleucine, N-[1-(2-Furan-2-yl-2-Oxoethyl)-L-Prolyl] Benzylamide]: the IC50 with NF-AT is above 100 µM; against FKBP, above 50 µM; in the assay with human T-cells, above 100 µM.

Consider `CC[C@H](C)[C@H](NC(=O)[C@@H]1CCCN1CC(=O)N1CCC(Cc2ccccc2)CC1)C(=O)NCc1ccccc1` [Example 74, L-Isoleucine, N-[1-[2-(N-(4-Benzylpiperidyl))-2-Oxoethyl]-L-Prolyl] Benzylamide], for which the IC50 against FKBP (setting [2]) is below 5 µM; in the assay on human T-cells (setting [3]), below 50 µM.

For the compound `CC[C@H](C)[C@H](NC(=O)[C@@H]1CCCN1CC(=O)N1CCCCC1C)C(=O)NCc1ccccc1` (stereo partly drawn) [Example 75, L-Isoleuclne, N-[1-[2-(2-Methylpiperidine)-2-Oxoethyl]-L-Prolyl] Benzylamide], the IC50 against FKBP (setting [2]) was below 5 µM; in the assay on human T-cells (setting [3]), 37 µM.

Consider `CC[C@H](C)[C@H](NC(=O)[C@@H]1CCCN1CC(=O)NCCO)C(=O)NCc1ccccc1` [Example 76, L-Isoleucine, N-[1-(2-(2-Hydroxyethylamine)-2-Oxoethyl)-L-Prolyl] Benzylamide], for which the IC50 was above 5 µM at FKBP (setting [2]) and above 50 µM with human T-cells (setting [3]).

In the case of `CC[C@H](C)[C@H](NC(=O)[C@@H]1CCCN1CC(=O)N1CCN(c2ccccc2)CC1)C(=O)NCc1ccccc1` [Example 77, L-Isoleucine, N-[1-[2-(4-Phenylpiperazine)-2-Oxoethyl]-L-Prolyl] Benzylamlde], the IC50 on FKBP (setting [2]) is below 5 µM; in the assay on human T-cells (setting [3]) it was 28 µM.

Take `CC[C@H](C)[C@H](NC(=O)[C@@H]1CCCN1CC(=O)N1CCCC1)C(=O)NCc1ccccc1` [Example 78, L-Isoleucine, N-[1-[2-(1-Pyrrolidine)-2-Oxoethyl]-L-Prolyl] Benzylamide]: the IC50 against FKBP (setting [2]) was above 5 µM; in the assay on human T-cells (setting [3]), 100 µM.

Regarding `CC[C@H](C)[C@H](NC(=O)[C@@H]1CCCN1CC(=O)N1CCC(c2ccccc2)CC1)C(=O)NCc1ccccc1` [Example 82, L-Isoleucine, N-[1-(2-(4-Phenylpiperidyl)-2-Oxoethyl)-L-Prolyl] Benzylamide], the IC50 against FKBP (setting [2]) was below 5 µM; with human T-cells (setting [3]) it was 20 µM.

Consider `CC[C@H](C)[C@H](NC(=O)[C@@H]1CCCCN1CC(=O)c1cc(OC)c(OC)c(OC)c1)C(=O)NCc1ccccc1` [Example 153, L-Isoleucine, N-[1-(2-(3,4,5-Trimethoxyphenyl)-2-Oxoethyl)-L-Homoprolyl] Benzylamide], for which the IC50 with NF-AT (setting [1]) and in the assay on human T-cells (setting [3]) was above 15 µM throughout.

With “L-Isoleucine, N-[1-(2-(2-Methoxyphenyl)-2-Oxoethyl)-L-Prolyl] Benzylamide [Example 10]”, the IC50 at FKBP (setting [2]) and in the assay with human T-cells (setting [3]) was below 50 µM throughout.

For “L-Isoleucine, N-[1-(2-(Carbo-tert-Butoxy)-2-Oxoethyl)-L-Proline] Benzylamide [Example 25]”, the IC50 against FKBP (setting [2]) was 0.99 µM; in the assay with human T-cells (setting [3]), 63 µM.

Take “L-Isoleuclne, N-[1-(2-(1-Methyl-Cyclohexyl)-2-Oxoethyl)-L-Prolyl] Benzylamide [Example 44]”: the IC50 came out at 24 µM in the assay on NF-AT and 12 µM in the assay on human T-cells.
